Experimental data published in patent US11185527B2, “Methods and compositions relating to steroid hormone receptor-dependent cancers” (Wayne State University, priority 2017, dated 2021).
Several values for one entry are separate records, joined by “and”; a condition that tells them apart may be missing. Identical values can stand only once. One block for each compound: values may come before it.

Key:
[1] = tested on: 22Rv1 cells; assay: Cell monolayer growth assay (MTT); format: cell-based, human; conditions: enzalutamide up to 20 uM
Experimental: Twenty four hours after plating the 22Rv1 cells, they were treated with the indicated concentrations of KCI807 (FIG. 4C) or with the indicated concentrations of enzalutamide (ENZ) (FIG. 4D).
Twenty four hours after plating the cells, they were treated with the indicated concentrations of the compound.
FIG. 16D is a graph showing the effect of 5′-Fluoro-5,3′-Dihydroxyflavone at various concentrations on growth of 22Rv1 cells.
Cells were trypsinized and 3000-4000 cells/well were seeded in 96-well plates coated with poly-D-lysine. The cells were seeded in phenol red-free medium supplemented with 10% FBS, 100 units/ml penicillin, 100 μg/ml streptomycin, 2 mM L-glutamine mixture and sodium pyruvate (1 mM) for LNCaP cells and phenol red-free medium supplemented with 10% FBS, 100 units/ml penicillin, 100 μg/ml streptomycin and 2 mM L-glutamine mixture for VCaP, 22Rv1, DU145, HeLa, HEK293 and H1650 cells. The cells were grown at 37° C. in 5% CO2. Twenty four hours after seeding in the 96-well plates, the cells were treated with the indicated concentration of KCI807 or DMSO (vehicle). The cells were re-treated on Day 3 by removing half the volume of medium and replacing it with fresh treated medium. Cell viability was determined using the MTT assay from day zero until day five. MTT (10 μL, 5 mg/mL) was added to each well and incubated for 2h at 37° C. The formazan crystal sediments were dissolved in 100 μL of DMSO, and the absorbance at 570 nm was measured using the BioTek Synergy 2 Microplate Reader (BioTek, Winooski, Vt.). The assay was conducted in sextuplicate wells and values were normalized to day zero.

[2] = Metabolism in pooled human liver microsomes (HLM) with or without NADPH; format: in vitro ADME
Experimental: BD UltraPool human liver microsomes (HLM) 150 and the NAPDH regenerating system solution A and B were obtained from Corning Inc. Pooled HLM were used to determine percentage of metabolism of 5,3′-Dihydroxyflavone and 5,3-Dihydroxy-4′-methylflavone. The compounds (20 μM) were co-incubated with HLM (0.05 mg/ml) in the presence or absence of NAPDH for 30 minutes in a 37° C. water bath. At the end of the microsome reaction, the reaction was quenched with 1000 μl ethyl acetate. The mixture was vortexed and centrifuged at 13,000 rpm for 15 minutes, the supernatant was then subjected to high-performance liquid chromatography with tandem mass spectrometry ([…]) analysis.

[3] = tested on: ELK1-dependent promoter activation by AR; assay: Primary screening assay: luciferase reporter in recombinant HeLa cells (Gal4-TATA-Luc, Gal4-ELK1, AR) treated with testosterone; format: cell-based, human; conditions: for inhibition of ELK1-dependent promoter activation by AR (in words): testosterone-treated recombinant HeLa cells, luciferase
Excerpt: FIG. 6A is a schematic diagram of the reporter system for the primary screening assay. Recombinant HeLa cells used in this assay harbor the Gal4-TATA-Luc promoter-reporter, and stably express a Gal4-ELK1 fusion protein as well as the androgen receptor (AR). Gal4-ELK1 is bound to the Gal4 elements in the promoter. In the absence of testosterone (small circle), AR is localized in the cytoplasm. When testosterone is present it binds to AR causing AR to translocate to the nucleus where it then binds to Gal4-ELK1 and activates the downstream luciferase reporter.
HeLa HLR cells obtained from Dr. Johann Hofman (Innsbruck Medical University), which were originally designed to serve as a cell-based assay system to measure modulation of MAPK activity. HeLa HLR cells have a stably integrated minimal promoter-luciferase reporter containing five upstream Gal4 elements (Gal4-TATA-Luc) and also constitutively express a Gal4-ELK1 fusion protein in which the Gal4 DNA binding domain is substituted for the ETS DNA binding domain of ELK1. In order to produce recombinant cell lines for high throughput screening and counter screening of small molecule libraries, HeLa HLR were stably transduced with a vector expressing the full-length AR. A sequence encoding the full length AR (SEQ ID NO:9) was subcloned from the pCMV expression vector (Origene) into the pCDH-CMV-MCS-EF1-Puro cDNA Cloning and Expression Vector (System Biosciences) at NheI (upstream) and BamHI (downstream) sites. The lentiviral vector expressing full length AR was then packaged in lentivirus and the HeLa HLR cells were infected as described below in the sub-section “Lentivirus-mediated-Transduction.” After 72 hours (h) of infection, 2 ug/mL of puromycin was added to the culture medium to select for the transduced cells. The cells were plated at low density for colony formation (20-40 colonies) in a 100 mm dish. Clonal cells were isolated using cloning cylinders from CORNING (Cat. #3166-8). The selected clones were further expanded and then tested for luciferase induction by testosterone. The clone that gave the greatest luciferase signal to noise ratio in response to testosterone treatment was then chosen for use in the primary screening assay for high throughput small molecule screening.
For high throughput screening, recombinant primary screening cells were first depleted of hormone by growing them for 24h in medium in which the serum used was heat-inactivated and charcoal-stripped. The cells were then plated in 384-well white flat bottom plates (5,000 cells/well) (Corning Product #3570) using a Multidrop (Thermo Fisher Scientific, Waltham, Mass.). The plates were then incubated for 24h prior to adding test compounds. The following day test compounds from the LOPAC, Prestwick, or Maybridge Hitfinder libraries were added precisely in a 0.2 μL volume in the test wells using a Biomek FX liquid handler (Beckman Coutler, Break, Calif.) to achieve final media concentration of 10 μM of each test compound. Using the Multidrop (ThermoLab Systems, Helsinki, Finland), testosterone was added in addition to the test compounds to achieve a final media concentration of 10 nM. As the test compounds were re-constituted from powder stocks using dimethyl sulfoxide (DMSO) as the solvent, the final media concentration of DMSO was 0.4% v/v. For the assay negative control on each plate, one row of wells on each plate contained 10 nM testosterone and 0.4% v/v of DMSO. For the assay positive control on each plate, one row of wells on each plate contained 10 nM testosterone and 10 uM enzalutamide dissolved in DMSO (0.4% v/v of DMSO in the wells). The plates were incubated for 24h at 37° C. in 5% CO2. The medium was then aspirated leaving a residual volume 10 μl using an Elx 405-plate washer (Bio Tek U.S.). Then, 10 uL of the assay reagent Bright-Glo (Promega Corp., Madison Wis.) was added to each well. […]

[4] = tested on: ARE-dependent promoter activation by AR; assay: Counter screening assay: ARE-luciferase reporter in recombinant HeLa cells expressing AR; format: cell-based, human; conditions: testosterone-treated recombinant HeLa cells
Excerpt: FIG. 6B is a schematic diagram of the reporter system for the counter screening assay. Recombinant HeLa cells used in this assay are identical to the primary screening cells except for the absence of Gal4-ELK1 and substitution of the Gal4 elements in the promoter with a canonical ARE. In this case, testosterone causes cytosolic AR to translocate to the nucleus and bind to the ARE in the promoter resulting in activation of the luciferase reporter.
The cells generated for counter screening, are HeLa cells stably transduced with a lentiviral plasmid construct containing a minimal promoter-luciferase reporter and an upstream androgen response element (ARE) sequence. These HeLa cells were also transduced with a lentiviral expression plasmid encoding the full-length AR. These lentiviral constructs were made as follows. Custom synthesized PCR primers were used to amplify and clone the ARE sequence from a pG5luc plasmid construct containing an ARE sequence element into the pGreenFire1 ™-mCMV-EF1-Neo (Plasmid) at SpeI (upstream) and BamHI (downstream) sites. pG5luc Vector is well known and the complete sequence has NCBI accession #AF264724. The ARE containing pG5luc plasmid is described in detail in Patki et al., 2013, J Biol Chem, 288:11047-11065. The lentiviral vector expressing ARE-luciferase reporter was then packaged in lentivirus and parental HeLa cells were infected as described below under the heading “Lentivirus-mediated-Transduction.” After 72h of infection, 400 ug/mL of Geneticin was added to the culture medium to select for the transduced cells. These cells were then infected with the lentivirus containing the full length AR expression plasmid described above. After 72h of infection, 2 ug/mL of Puromycin was added to the culture medium to select for the transduced cells. Clonal cells harboring both the ARE-promoter-luciferase reporter and also stably expressing AR were then isolated using cloning cylinders as described above. The selected clones were further expanded and then tested for luciferase induction by testosterone. The clone that gave the greatest luciferase signal to noise ratio in response to testosterone treatment was then chosen for use in the counter screening assay for high throughput small molecule screening. All of the plasmid constructs generated above were sequenced to verify DNA sequences before, the constructs were used.
For high throughput screening, recombinant primary screening cells were first depleted of hormone by growing them for 24h in medium in which the serum used was heat-inactivated and charcoal-stripped. The cells were then plated in 384-well white flat bottom plates (5,000 cells/well) (Corning Product #3570) using a Multidrop (Thermo Fisher Scientific, Waltham, Mass.). […]

[5] = tested on: AR negative cell lines; assay: Toxicity to AR negative cell lines; conditions: at low doses, concentration range of 1 uM-10 uM
[6] = HLM 0.05 mg/ml, 30 minutes, 37° C.

mean compound concentration, Control (absence of NADPH) [2, 6]: 1774 nM
mean compound concentration, NADPH treated [2, 6]: 1549 nM
percentage metabolized (%) ([2]; HLM 0.05 mg/ml, NADPH, 30 minutes, 37° C.): 12.7%
reduction of metabolism in human liver microsomes relative to 5,3′-dihydroxyflavone ([2]; methyl group substitution on the 4′ carbon): 50%
SMILES: Cc1ccc(-c2cc(=O)c3c(O)cccc3o2)cc1O [4′-methyl-5,3′-dihydroxyflavone, 5,3′-dihydroxy-4′-methylflavone]
growth inhibition of 22Rv1 cells [1]: retained its ability to inhibit growth
compound concentration after HLM incubation, Control (absence of NADPH), replicate [2, 6]: 1789 nM and 1770 nM and 1757 nM and 1773 nM and 1776 nM and 1782 nM
compound concentration after HLM incubation, NADPH treated, replicate [2, 6]: 1491 nM and 1513 nM and 1639 nM and 1651 nM and 1498 nM and 1501 nM

SMILES: O=c1cc(-c2ccc(O)c(O)c2)oc2cc(O)cc(O)c12 [Hit1, 5,7,3′,4′-tetrahydroxyflavone]
inhibition at 10 µM ([3]; Homo sapiens, HeLa, compound concentration of 10 μM, read-out: inhibition in the primary screen): 80 to 100%
inhibition of ARE-dependent promoter activation by AR (in words) [4]: virtual absence of an effect

SMILES: O=c1cc(-c2cccc(O)c2)oc2cc(F)cc(O)c12 [7-Fluoro-5,3′-dihydroxyflavone]
inhibition of ELK1-dependent promoter activation by AR (in words) [3]: inhibited
inhibition of ARE-dependent promoter activation by AR (in words) [4]: inhibited

SMILES: COc1c(-c2ccc(O)c(O)c2)oc2cc(O)cc(O)c2c1=O [5,7,3′,4′-tetrahydroxy-3-methoxyflavone]
inhibition of ELK1-dependent promoter activation by AR (in words) [3]: lack of inhibition

SMILES: O=c1cc(-c2cc(O)cc(F)c2)oc2cc(F)cc(O)c12 [5′,7-diflouro-5,3′-dihydroxyflavone]
inhibition of ELK1-dependent promoter activation by AR (in words) [3]: inhibited
inhibition of ARE-dependent promoter activation by AR (in words) [4]: inhibited
toxicity to AR negative cell lines [5]: toxic
